Experimental data from patent US11717476B2, “Moringa peregrina seed extract rich in 2,5-diformylfuran, process for obtaining same and use thereof in cosmetic compositions” (priority 2020, dated 2023).

How the values were obtained:
[1] = system: telomerase; test: Telomerase activity in adult keratinocytes in monolayer culture (PCR-ELISA kit); type: cell-based, human; details: 100 ng/ml; 24 hours
Experimental: Protocol: Human keratinocytes were obtained from a donor. To perform the experiments, the keratinocytes were used at a low passage level (i.e., cell isolation passage number 2). The cells were grown as a monolayer until they reached about 75% of confluence before being used in the experiment. Reference product: FK228 at 100 ng/ml was used as a reference inducer of telomerase 1 activity. Incubation protocol: […] At the end of the incubation period, the telomerase was extracted from the cells and its activity was determined by means of a specific, sensitive kit. The principle of the telomerase kit is to measure the telomerase activity by coupling a PCR step (in which telomerase functions as regards its elongation activity) with an ELISA step for semi-quantitative determination of amounts of telomerase elongation product. The results are expressed in arbitrary units for the telomerase activity level (mean±S.D). The significance level between the “vehicle” and the “reference product” was evaluated by means of a Student's t test (*: p<0.05). The significance level between “control” and “test compound” was evaluated independently for each product by a one-way analysis of variance (one-way ANOVA) followed by a Holm-Sidak test (*: p<0.05).

[2] = biological target: T1, phospholipase A2 (Homo sapiens, UniProt P39877); test: sPLA2 (type V) Inhibitor Screening Assay Kit; type: biochemical; details: 1 mg in 100 μl
T1 construct: purchased
T1 sequence (P39877 21-138): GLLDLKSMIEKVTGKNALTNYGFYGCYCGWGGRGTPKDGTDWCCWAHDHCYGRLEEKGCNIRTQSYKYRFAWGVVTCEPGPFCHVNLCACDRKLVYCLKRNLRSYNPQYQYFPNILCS
Excerpt: The object of this study is to evaluate the modulation of the […] activity of the enzyme phospholipase A2 by one or more samples in an in vitro acellular model by means of the “SPLA2 (type V) Inhibitor Screening Assay Kit”. Phospholipase A2 is a key enzyme upstream of the inflammatory process which is triggered by the arachidonic cascade. A buffered solution of phospholipase A2 reacts with a specific substrate, diheptanoyl thio-PC, and transforms it into a compound which binds to a chromogen, DTNB, with agitation at room temperature. The phospholipase A2 activity may thus be evaluated by measuring the absorbance at 413 nm. […] The substrate transformed by the enzyme is stained by means of the chromogen DTNB by agitation at room temperature. […] The modulation of this activity is expressed as a percentage of inhibition or of activation of the phospholipase A2 activity in the absence of the active agent, i.e. only in the presence of the enzyme substrate (diheptanoyl thio-PC).
At the end of the incubation period, the activity of the enzyme phospholipase A2 with and without the test product or the reference product is evaluated by measuring the absorbance of the reaction media at 413 nm. For each concentration tested, the modulation of the phospholipase A2 enzymatic activity with the test product is calculated according to the following formula. […]

SMILES | increase of telomerase activity [1] | inhibition of PLA2 activity [2]
C/C=C1\NC(=O)[C@H]2CSSCC/C=C/[C@H](CC(=O)N[C@H](C(C)C)C(=O)N2)OC(=O)[C@H](C(C)C)NC1=O [FK228] | 28.0% | 
CCCCCCCCCCCCCCCCSC[C@H](COP(=O)(O)OCC[N+](C)(C)C)NC(=O)CCCCCCCCCCCCCCC [thioetheramide-PC] |  | 93%
